Reference: US12590100B2, “Tetrahydro-spiroindoline-pyrrolopyrrole-triones inhibitors of the NRF2-β-TrCP interaction for use in the treatment of fatty liver disease” (Universidad Autonoma De Madrid, priority 2021, dated 2026)

What was measured:
NRF2 = test: HO-1 induction in Nrf2−/− versus Nrf2+/+ MEFs; assay type: cell-based, mouse
Description: FIG. 5. PHAR-mediated NRF2 activation is independent of KEAP1 and is responsible for the increase in the expression of its targets. (A-D) Serum-deprived MEFs originating from wild-type (WT) or KEAP1 null (Keap1−/−) mice were treated with 10 μM of PHAR for the indicated times. 0.1% DMSO was used as a vehicle. A), representative immunoblots of NRF2, HO1, KEAP1, LAMINB, and GAPDH as loading controls. B) and C), densitometric analysis of NRF2 and HO1 protein levels of the representative immunoblots of (A), expressed as a ratio of NRF2/LAMINB or HO1/GAPDH. The data is depicted as means±SEM (n=3). Statistical analysis was performed with two-way ANOVA followed by the Bonferroni test to check inter-group differences. D), the mRNA levels of Hmox-1, Nqo1, Aox1, Gc1c, and Gc1m were determined after 8 h of 10 μM PHAR by means of qRT-PCR and normalized by means of average Gapdh, Tbp, and β-actin. The data is depicted as mean±SEM (n=3). Statistical analysis was performed with two-way ANOVA followed by the Bonferroni test to check inter-group differences. *p<0.05; **p<0.01; ***p<0.001 vs. 0 of MEF-WT. (E-H), Serum-deprived MEFs from wild-type (WT) or NRF2 null (Nrf2−/−) mice were subjected to 10 μM of PHAR for the indicated times. 0.1% DMSO was used as a vehicle. E), representative immunoblots of NRF2, HO1, KEAP1, LAMINB, and GAPDH as loading controls. F) and G), densitometric analysis of NRF2 and HO1 protein levels of the representative immunoblots of (E), expressed as a ratio of NRF2/LAMINB or HO1/GAPDH. […] H), the mRNA levels of Hmox-1, Nqo1, Aox1, Gclc, and Gclm were determined after 8 h of 10 μM PHAR by means of qRT-PCR and normalized by means of average Gapdh, Tbp, and β-actin. […]
From a viewpoint of biopharmaceutical usefulness, it is important to determine if PHAR acts on KEAP1/NRF2 interaction, or if it represents, in contrast, a novel approach directed specifically at β-TrCP/NRF2 interaction. […] As an additional control, the HO-1 levels in MEFs originating from NRF2 knock-out (Nrf2^−/−) and wild-type (Nrf2^+/+) mice from the same litter were analyzed by immunoblot. […]

[1] = test system: peritoneal macrophages (Nrf2+/+); test: Inflammatory response in LPS-stimulated peritoneal macrophages from Nrf2+/+ mice; assay type: cell-based, mouse; details: PHAR 10 μM 8 h, LPS 100 ng/ml 4 h
Description: FIG. 8. PHAR reduces inflammatory response in peritoneal macrophages originating from Nrf2^+/+ mice but not in peritoneal macrophages originating from LPS-stimulated Nrf2-4KI mice. Peritoneal macrophages originating from wild-type (WT) and serum-deprived NRF2 knock-in (Nrf2-4Ki) mice were pretreated with 10 μM of PHAR for 8 h. 0.1% DMSO was used as a vehicle. After that period of time, the cells were treated with 100 ng/ml of LPS for 4 h. A), representative immunoblots originating from both cell types of NRF2, HO1, pre-IL1β, COX2, NOS2, and GAPDH as a loading control. B), densitometric analysis of NRF2 and HO1 protein levels of the representative immunoblots of (A), expressed as a ratio of protein/GAPDH levels. The data is depicted as means±SEM (n=3). Statistical analysis was performed with two-way ANOVA followed by the Bonferroni test to compare inter-group differences. *p<0.05; **p<0.01; ***p<0.001 vs. LPS. C), Densitometric analysis of pre-IL1b, COX2, and NOS2 protein levels of the representative immunoblots of (A), expressed as a ratio of protein/GAPDH levels. The data is depicted as means±SEM (n=3). […] D), the mRNA levels of Hmox1, Il1 β, Cox2, Nos2, Il6, and Tnfα were determined by means of qRT-PCR and normalized by means of average Gapdh, Thp, and β-actin. […]

Compound: O=C1[C@@H]2[C@H](Cc3c[nH]c4ccccc34)N[C@]3(C(=O)Nc4ccc(Cl)cc43)[C@@H]2C(=O)N1c1ccc2c(c1)OCCO2 [PHAR]
- HO-1 increase in MEFs from Nrf2−/− mice (NRF2; PHAR 10 μM, 2, 4, 8 h): not observed
- HO-1 levels in MEFs from Nrf2+/+ mice (NRF2; PHAR 10 μM, 2, 4, 8 h): significant increase in HO-1
- mRNA levels of NRF2 targets in Nrf2+/+ and Nrf2−/− MEFs (NRF2; PHAR 10 μM, 8 h): The same result was obtained
- NRF2 and HO-1 protein levels [1]: significant increase in NRF2 and HO-1 protein levels
- production of inflammatory markers, protein (pre-IL1β, COX2, NOS2) and mRNA (Il1β, Cox2, Nos2, Il6, Tnfα) [1]: significantly lower
